Key:
Experiment in all cases: relative viability (nuclei count vs DMSO), 5 days (fraction); higher = more cells survive
[1] = test system: NCI-H1755
Procedure, shortened: (§1)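 Relative viability is defined as nuclei in treated wells over nuclei in vehicle wells. Duplicate plates were run and medians reported. Lung cancer cell lines in 1536-well plates were dosed by pin tool one day after seeding, with one drug or with a fixed anchor-drug dose plus five library-drug doses (not always all listed) in √10 steps, and nuclei were counted after 5 days.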

[2] = test system: NCI-H2009
Procedure, shortened: as §1

[3] = test system: NCI-H2087
Procedure, shortened: as §1

[4] = test system: NCI-H2126
Procedure, shortened: as §1

[5] = test system: NCI-H2170
Procedure, shortened: as §1

[6] = test system: NCI-H3122
Procedure, shortened: as §1

[7] = test system: NCI-H322M
Procedure, shortened: as §1

[8] = test system: NCI-H441
Procedure, shortened: as §1

[9] = test system: NCI-H647
Procedure, shortened: as §1

[10] = test system: PC-14
Procedure, shortened: as §1

[11] = test system: SK-MES-1
Procedure, shortened: as §1

O=c1[nH]c2ccccc2n1C1CCN(CCCC(c2ccc(F)cc2)c2ccc(F)cc2)CC1 [Pimozide] + CC(=O)c1c(C)c2cnc(Nc3ccc(N4CCNCC4)cn3)nc2n(C2CCCC2)c1=O [Palbociclib] (partner 0.5 µM)
relative viability ([1]; first compound 0.08 µM): 0.448 | relative viability ([1]; first compound 0.253 µM): 0.337 | relative viability ([1]; first compound 0.8 µM): 0.447 | relative viability ([1]; first compound 2.53 µM): 0.416 | relative viability ([1]; first compound 8 µM): 0.46 | relative viability ([2]; first compound 0.08 µM): 0.202 | relative viability ([2]; first compound 0.253 µM): 0.307 | relative viability ([2]; first compound 0.8 µM): 0.178 | relative viability ([2]; first compound 2.53 µM): 0.226 | relative viability ([2]; first compound 8 µM): 0.188 | relative viability ([3]; first compound 0.08 µM): 0.197 | relative viability ([3]; first compound 0.253 µM): 0.233 | relative viability ([3]; first compound 2.53 µM): 0.274 | relative viability ([3]; first compound 8 µM): 0.195 | relative viability ([4]; first compound 0.08 µM): 0.373 | relative viability ([4]; first compound 0.253 µM): 0.321 | relative viability ([4]; first compound 0.8 µM): 0.369 | relative viability ([4]; first compound 2.53 µM): 0.363 | relative viability ([4]; first compound 8 µM): 0.365 | relative viability ([5]; first compound 0.08 µM): 0.384 | relative viability ([5]; first compound 0.253 µM): 0.363 | relative viability ([5]; first compound 0.8 µM): 0.365 | relative viability ([5]; first compound 2.53 µM): 0.358 | relative viability ([5]; first compound 8 µM): 0.369 | relative viability ([6]; first compound 0.08 µM): 0.175 | relative viability ([6]; first compound 0.253 µM): 0.176 | relative viability ([6]; first compound 0.8 µM): 0.174 | relative viability ([6]; first compound 2.53 µM): 0.163 | relative viability ([6]; first compound 8 µM): 0.185 | relative viability ([7]; first compound 0.08 µM): 0.416 | relative viability ([7]; first compound 0.253 µM): 0.475 | relative viability ([7]; first compound 0.8 µM): 0.483 | relative viability ([7]; first compound 2.53 µM): 0.492 | relative viability ([7]; first compound 8 µM): 0.505 | relative viability ([8]; first compound 0.08 µM): 0.273 | relative viability ([8]; first compound 0.253 µM): 0.252 | relative viability ([8]; first compound 0.8 µM): 0.162 | relative viability ([8]; first compound 2.53 µM): 0.218 | relative viability ([8]; first compound 8 µM): 0.208 | relative viability ([9]; first compound 0.08 µM): 0.404 | relative viability ([9]; first compound 0.253 µM): 0.509 | relative viability ([9]; first compound 0.8 µM): 0.384 | relative viability ([9]; first compound 2.53 µM): 0.32 | relative viability ([9]; first compound 8 µM): 0.313 | relative viability ([10]; first compound 0.253 µM): 0.579 | relative viability ([10]; first compound 0.8 µM): 0.368 | relative viability ([10]; first compound 2.53 µM): 0.219 | relative viability ([10]; first compound 8 µM): 0.178 | relative viability ([11]; first compound 0.08 µM): 0.307 | relative viability ([11]; first compound 0.253 µM): 0.298 | relative viability ([11]; first compound 0.8 µM): 0.303 | relative viability ([11]; first compound 2.53 µM): 0.316 | relative viability ([11]; first compound 8 µM): 0.314
